Laboratory results: patent publication US20250221998A1, “DISCOVERY OF COVALENT EGFR INHIBITOR THROUGH CYSTEINE 775” (Dana-Farber Cancer Institute, Inc., priority 2022, published 2025)

How the values were obtained:
[1] = molecular target: EGFR mutant L858R Ba/F3 cells (Homo sapiens, UniProt P00533, L858R, cells depend on it); assay: Ba/F3 cell proliferation (Cell Titer Glo), EGFR L858R; assay type: cell-based, murine; conditions: 72 hours exposure, read-out: L858R BaF3 (μM), inhibitory activity against EGFR mutants
Sequence of EGFR mutant L858R Ba/F3 cells (P00533 whole entry L858R): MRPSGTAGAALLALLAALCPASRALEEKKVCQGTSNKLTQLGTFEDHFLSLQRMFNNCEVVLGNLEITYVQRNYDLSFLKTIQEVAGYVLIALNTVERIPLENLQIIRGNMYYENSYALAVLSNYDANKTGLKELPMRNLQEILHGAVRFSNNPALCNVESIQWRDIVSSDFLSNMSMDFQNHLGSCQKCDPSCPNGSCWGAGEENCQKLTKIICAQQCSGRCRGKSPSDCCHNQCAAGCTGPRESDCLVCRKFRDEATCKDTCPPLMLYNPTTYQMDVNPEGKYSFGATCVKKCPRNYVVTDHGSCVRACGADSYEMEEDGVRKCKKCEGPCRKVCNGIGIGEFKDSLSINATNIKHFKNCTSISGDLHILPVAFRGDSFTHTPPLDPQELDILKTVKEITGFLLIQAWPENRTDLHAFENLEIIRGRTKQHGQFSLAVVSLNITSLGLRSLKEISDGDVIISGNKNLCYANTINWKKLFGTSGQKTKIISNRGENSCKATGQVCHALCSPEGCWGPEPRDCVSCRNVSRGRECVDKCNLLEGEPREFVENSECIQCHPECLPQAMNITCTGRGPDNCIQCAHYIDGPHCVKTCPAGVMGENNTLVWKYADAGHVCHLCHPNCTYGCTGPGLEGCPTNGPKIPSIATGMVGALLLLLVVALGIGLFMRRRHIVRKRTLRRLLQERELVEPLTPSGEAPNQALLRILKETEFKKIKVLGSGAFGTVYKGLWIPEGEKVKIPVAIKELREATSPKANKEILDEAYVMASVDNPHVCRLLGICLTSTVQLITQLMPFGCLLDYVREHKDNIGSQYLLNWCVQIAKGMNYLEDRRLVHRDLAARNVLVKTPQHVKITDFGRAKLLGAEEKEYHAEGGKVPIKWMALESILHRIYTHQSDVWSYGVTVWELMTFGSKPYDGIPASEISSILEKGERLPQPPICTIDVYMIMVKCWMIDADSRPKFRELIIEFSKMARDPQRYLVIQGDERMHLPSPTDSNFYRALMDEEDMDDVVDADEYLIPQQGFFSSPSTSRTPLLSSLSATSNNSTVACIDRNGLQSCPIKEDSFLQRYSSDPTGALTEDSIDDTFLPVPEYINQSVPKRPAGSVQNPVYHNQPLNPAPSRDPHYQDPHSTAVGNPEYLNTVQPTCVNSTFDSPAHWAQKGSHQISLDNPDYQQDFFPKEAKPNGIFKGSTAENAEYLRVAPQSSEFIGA
Method in brief: (§1)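 Ba/F3 cells stably expressing retrovirally transduced EGFR L858R, L858R/C797S or L858R/C775S, puromycin-selected. Compound exposure 72 hours in triplicate; viability by Cell Titer Glo ATP luminescence.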

[2] = molecular target: EGFR L858R/C797S Ba/F3 cells (Homo sapiens, UniProt P00533, C797S/L858R, cells depend on it); assay: Ba/F3 cell proliferation (Cell Titer Glo), EGFR L858R/C797S; assay type: cell-based, murine; conditions: 72 hours exposure, read-out: L858R/C797S (μM), inhibitory activity against EGFR mutants
Sequence of EGFR L858R/C797S Ba/F3 cells (P00533 whole entry C797S/L858R): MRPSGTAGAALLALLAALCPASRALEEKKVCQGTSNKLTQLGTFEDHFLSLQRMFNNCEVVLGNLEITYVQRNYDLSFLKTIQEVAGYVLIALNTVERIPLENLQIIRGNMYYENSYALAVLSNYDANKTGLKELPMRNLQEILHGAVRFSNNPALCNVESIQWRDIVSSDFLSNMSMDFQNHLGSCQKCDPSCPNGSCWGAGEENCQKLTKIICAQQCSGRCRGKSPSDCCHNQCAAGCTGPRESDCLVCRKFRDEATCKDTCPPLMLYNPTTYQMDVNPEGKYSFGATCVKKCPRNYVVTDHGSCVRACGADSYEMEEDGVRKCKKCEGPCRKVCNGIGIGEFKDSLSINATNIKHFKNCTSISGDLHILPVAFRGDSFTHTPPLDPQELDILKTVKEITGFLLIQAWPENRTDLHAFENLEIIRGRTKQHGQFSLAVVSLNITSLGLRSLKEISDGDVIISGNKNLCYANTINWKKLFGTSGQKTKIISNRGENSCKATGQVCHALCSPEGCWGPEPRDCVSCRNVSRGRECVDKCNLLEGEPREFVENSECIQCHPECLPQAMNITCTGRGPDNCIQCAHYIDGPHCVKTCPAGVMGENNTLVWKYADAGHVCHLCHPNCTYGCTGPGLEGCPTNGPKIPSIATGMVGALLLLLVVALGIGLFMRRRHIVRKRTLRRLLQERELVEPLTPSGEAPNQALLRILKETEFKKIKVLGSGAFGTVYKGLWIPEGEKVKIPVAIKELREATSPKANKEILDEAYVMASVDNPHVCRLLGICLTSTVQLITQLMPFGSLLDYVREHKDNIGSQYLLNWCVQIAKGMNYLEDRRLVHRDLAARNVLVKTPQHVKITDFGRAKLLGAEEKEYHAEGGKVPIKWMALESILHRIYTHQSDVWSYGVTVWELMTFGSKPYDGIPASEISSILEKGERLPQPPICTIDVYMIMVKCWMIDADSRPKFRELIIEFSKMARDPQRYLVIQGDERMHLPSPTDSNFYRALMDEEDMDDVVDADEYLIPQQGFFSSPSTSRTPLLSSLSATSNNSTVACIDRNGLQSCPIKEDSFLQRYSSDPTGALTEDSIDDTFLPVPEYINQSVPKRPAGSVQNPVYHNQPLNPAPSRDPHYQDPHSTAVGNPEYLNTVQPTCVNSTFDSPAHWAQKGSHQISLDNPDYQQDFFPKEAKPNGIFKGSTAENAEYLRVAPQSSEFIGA
Method in brief: as §1

Structure (SMILES)	GI50 [1]	GI50 [2]
C=CC(=O)N1CCN(c2cc3cnc(NC4CC4)nc3n(C3CCOCC3)c2=O)c2cccc(C)c21 [Compound 097, 2-(cyclopropylamino)-6-(5-methyl-4-prop-2-enoyl-2,3-dihydroquinoxalin-1-yl)-8-tetrahydropyran-4-yl-pyrido[2,3-d]pyrimidin-7-one]	≤ 0.25 µM	≤ 0.25 µM
C=CC(=O)N1CCN(c2cc3cnc(NC4CC4)nc3n(-c3ccc(N(C)CCOC)cc3)c2=O)c2cccc(C)c21 [Compound 100, 2-(cyclopropylamino)-8-[4-[2-methoxyethyl(methyl)amino]phenyl]-6-(5-methyl-4-prop-2-enoyl-2,3-dihydroquinoxalin-1-yl)pyrido[2,3-d]pyrimidin-7-one]	≤ 0.25 µM	≤ 0.25 µM
C=CC(=O)N1CCN(c2cc3cnc(NC4CCC4)nc3n(-c3ccc(N(C)CCN(C)C)cc3)c2=O)c2cccc(C)c21 [Compound 102, 2-(cyclobutylamino)-8-[4-[2-(dimethylamino)ethyl-methyl-amino]phenyl]-6-(5-methyl-4-prop-2-enoyl-2,3-dihydroquinoxalin-1-yl)pyrido[2,3-d]pyrimidin-7-one]	≤ 0.25 µM	≤ 0.25 µM
C=CC(=O)N1CCN(c2cc3cnc(N)nc3n(-c3ccc(CN4CCN(C)CC4)cc3)c2=O)c2cccc(C)c21 [Compound 103, 2-amino-8-[4-[(4-methylpiperazin-1-yl)methyl]phenyl]-6-(5-methyl-4-prop-2-enoyl-2,3-dihydroquinoxalin-1-yl)pyrido[2,3-d]pyrimidin-7-one]	0.25 to 0.5 µM	0.5 to 2.5 µM
C=CC(=O)N1CCN(c2cc3cnc(N)nc3n(-c3ccc(OCCN(C)C)c(F)c3)c2=O)c2cccc(C)c21 [Compound 104, 2-amino-8-[4-[2-(dimethylamino)ethoxy]-3-fluoro-phenyl]-6-(5-methyl-4-prop-2-enoyl-2,3-dihydroquinoxalin-1-yl)pyrido[2,3-d]pyrimidin-7-one]	≤ 0.25 µM	≤ 0.25 µM

Now from value to compound:

GI50 [1]	GI50 [2]	Structure (SMILES)
≤ 0.25 µM	≤ 0.25 µM	C=CC(=O)N1CCN(c2cc3cnc(NC4CC4)nc3n(-c3ccc(N(C)CCN(C)C)cc3)c2=O)c2cccc(C)c21 [Compound 095, 2-(cyclopropylamino)-8-[4-[2-(dimethylamino)ethyl-methyl-amino]phenyl]-6-(5-methyl-4-prop-2-enoyl-2,3-dihydroquinoxalin-1-yl)pyrido[2,3-d]pyrimidin-7-one]
≤ 0.25 µM	≤ 0.25 µM	C=CC(=O)N1CCN(c2cc3cnc(NC4CC4)nc3n(C3CCOC3)c2=O)c2cccc(C)c21 (centres unmarked) [Compound 096, 2-(cyclopropylamino)-6-(5-methyl-4-prop-2-enoyl-2,3-dihydroquinoxalin-1-yl)-8-tetrahydrofuran-3-yl-pyrido[2,3-d]pyrimidin-7-one]
0.25 to 0.5 µM	0.5 to 2.5 µM	C=CC(=O)N1CCN(c2cc3cnc(N)nc3n(-c3cccc(O)c3)c2=O)c2cccc(C)c21 [Compound 098, 2-amino-8-(3-hydroxyphenyl)-6-(5-methyl-4-prop-2-enoyl-2,3-dihydroquinoxalin-1-yl)pyrido[2,3-d]pyrimidin-7-one]
≤ 0.25 µM	≤ 0.25 µM	C=CC(=O)N1CCN(c2cc3cnc(N)nc3n(-c3ccc(N(C)CCOC)cc3)c2=O)c2cccc(C)c21 [Compound 099, 2-amino-8-[4-[2-methoxyethyl(methyl)amino]phenyl]-6-(5-methyl-4-prop-2-enoyl-2,3-dihydroquinoxalin-1-yl)pyrido[2,3-d]pyrimidin-7-one]
0.25 to 0.5 µM	0.5 to 2.5 µM	C=CC(=O)N1CCN(c2cc3cnc(N)nc3n(-c3ccc(N(C)CCN(C)C)cc3)c2=O)c2cccc(C)c21 [Compound 101, 2-amino-8-[4-[2-(dimethylamino)ethyl-methyl-amino]phenyl]-6-(5-methyl-4-prop-2-enoyl-2,3-dihydroquinoxalin-1-yl)pyrido[2,3-d]pyrimidin-7-one]
